Reference: patent publication US8778871B2 (Takeda Pharmaceutical Company Limited, priority 2004, dated 2014)
Non-standard residues stand in square brackets, D forms with d. Residues, ends and D or L forms follow the SMILES beside them. *: point of attachment. Propanoyl(3-(3-pyridyl)) = O=C(CCc1cccnc1)*; Arg(Me) = CNC(=N)NCCC[C@H](N)C(=O)O; d4Pal = N[C@H](Cc1ccncc1)C(=O)O; azaGly = NNC(=O)O

Experiments:
hOT7T175 [1] = target: T1, hOT7T175 (Homo sapiens, UniProt Q969F8, L364H); type: cell-based; settings: hOT7T175/CHO, FLIPR, evaluation for 40 seconds after initiation of the reaction
T1 construct: expressed in transfected cells
T1 sequence (Q969F8 whole entry L364H): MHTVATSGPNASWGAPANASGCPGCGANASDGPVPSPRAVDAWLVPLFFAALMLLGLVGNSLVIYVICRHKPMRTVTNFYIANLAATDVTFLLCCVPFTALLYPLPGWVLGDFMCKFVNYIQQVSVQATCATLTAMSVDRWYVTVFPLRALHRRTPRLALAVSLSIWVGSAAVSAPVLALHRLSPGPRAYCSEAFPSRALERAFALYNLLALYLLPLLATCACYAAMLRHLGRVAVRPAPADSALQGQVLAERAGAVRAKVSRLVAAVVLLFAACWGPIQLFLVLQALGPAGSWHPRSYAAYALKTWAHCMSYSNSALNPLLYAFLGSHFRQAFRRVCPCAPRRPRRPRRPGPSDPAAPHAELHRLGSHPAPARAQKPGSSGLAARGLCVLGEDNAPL
Procedure: The intracellular Ca ion level-increasing activity was measured using FLIPR as in TEST EXAMPLE 2.

hOT7T175 [2] = target: T2, hOT7T175 (Homo sapiens, UniProt Q969F8); experiment: Intracellular Ca ion level-increasing activity using FLIPR (180 seconds; specific activity to Metastin (1-54)); type: cell-based; settings: hOT7T175/CHO, change in intracellular calcium ion level for 180 seconds, Tables 21-23
T2 construct: expressed in transfected cells
T2 sequence (Q969F8 whole entry L364H): as above

[3] = Induction of ovulation in immature rat using metastin derivatives; type: in vivo; settings: for progesterone level compared with hCG administration / dose to be administered for induction of ovulation equivalent to hCG / number of oocytes in average per rat: eCG-primed immature female Wistar rats; for dose to be administered for induction of ovulation equivalent to hCG: s.c.; for blood progesterone level: relative to Group A (hCG)
Procedure: Equine chorionic gonadotropin (eCG, serotropin, Dainippon Pharmaceutical Co., Ltd.) was dissolved in saline (Otsuka Pharmaceutical Co., Ltd.) in a concentration of 100 IU/mL. Using a 1 ml tuberculin syringe and a 26-gauge needle (both by Terumo Co., Ltd.), eCG was subcutaneously injected into the dorsal area of female Wistar rats of 23 days old after birth (Charles River Japan, Inc.) in a dose of 10 IU/animal, during 9:00 to 10:00 AM. Following the eCG injection, the animal was grouped after 47 to 48 hours as shown below, to which groups, each drug was injected.
Group B (5 rats): Compound No. 305 was dissolved in saline at 33.3 nmol/mL and the solution was subcutaneously injected into the back in a dose of 6.7 nmol/animal.
Group C (5 rats): Compound No. 305 was dissolved in saline at […] and the solution was subcutaneously injected into the back in a dose of 2.0 nmol/animal.
Group D (5 rats): Compound No. 322 was dissolved in saline at 33.3 nmol/mL and the solution was subcutaneously injected into the back in a dose of 6.7 nmol/animal.
Group E (5 rats): Compound No. 322 was dissolved in saline at 10.0 nmol/mL and the solution was subcutaneously injected into the back in a dose of 2.0 nmol/animal.
Group F (6 rats): Saline was subcutaneously injected into the back in a dose of 200 μL/animal.
After administration of these drugs, the animal was sacrificed by decapitation after 24 to 25 hours to recover blood, bilateral oviducts and uterus. In collecting blood, 90 μl of 10 KIU/mL aprotinin solution (Trasylol, Bayer) containing 3 mg/ml EDTA had been previously filled in a tube for recovery to prevent blood clotting. After blood recovery, the blood was thoroughly blended and the mixture was centrifuged at 2,000 G for 25 minutes. After the supernatant was recovered, the product was used as a plasma sample.
The number of oocytes was counted by referring to the method described in Eur. J. Endocrinol., 138, 594-600 (1998).
Where retention of oocytes in the oviducal ampulla was confirmed by stereomicroscopic observation of the oviduct, the ampulla was punctured with a 27-gauge needle for syringe (Terumo) to retrieve the oocytes. After granulosa cells surrounding the oocytes were removed by trypsin treatment, the number of oocytes was counted. Where retention of oocytes in the oviducal ampulla was not confirmed by stereomicroscopic observation of the oviduct, a with 27-gauge needle with the polished tip for syringe was inserted into the tubal ostium and more than 400 μL of saline was flushed into the oviduct and uterine for rinsing. Then, the presence or absence of oocytes in the effluent was observed.
The blood estradiol level was measured by radioimmunoassay (DPC.Estradiol Kit, Iatron, Inc.).
The blood progesterone level was measured by radioimmunoassay (DPC.Progesterone, Iatron, Inc.).

[4] = s.c. 2.0 nmol/animal (Groups C, E)
[5] = s.c. 6.7 nmol/animal (Groups B, D)

Structure (SMILES) | Specific Act. (EC50/MS10 EC50) (hOT7T175 [1]) | intracellular Ca ion level-increasing activity [specific activity to Metastin (1-54)] (hOT7T175 [2]) | rats ovulated ([3]; Group E, s.c. 2.0 mmol (so in the source) per animal) | progesterone level compared with hCG administration [3] | dose to be administered for induction of ovulation equivalent to hCG [3] | number of oocytes in average per rat [3, 4] | number of oocytes in average per rat [3, 5] | blood estradiol level [3, 4] | blood progesterone level [3, 4] | blood estradiol level [3, 5] | blood progesterone level [3, 5]
CNC(=N)NCCC[C@H](NC(=O)[C@H](CC(C)C)NC(=O)NNC(=O)[C@H](Cc1ccccc1)NC(=O)[C@H](CO)NC(=O)[C@H](CC(N)=O)NC(=O)CCc1cccnc1)C(=O)N[C@@H](Cc1ccccc1)C(N)=O [Compound No. 322, 3-(3-Pyridyl)propionyl-Asn-Ser-Phe-AzaGly-Leu-Arg(Me)-Phe-NH2] ({Propanoyl(3-(3-pyridyl))}-NSF[azaGly]L[Arg(Me)]F-NH2) | 5.4 | 1 | 3 out of 5 | lower than in the hCG administration | at least 6.7 mmol/animal | 11.6 oocytes | 29.6 oocytes | tendency to show a higher level in rats with no ovulation induction | very low level | no difference was found among Groups A, B, C and D | less than a half of the level in Group A
CNC(=N)NCCC[C@H](NC(=O)[C@H](CC(C)C)NC(=O)NNC(=O)[C@H](Cc1ccccc1)NC(=O)[C@H](CO)NC(=O)[C@H](CC(N)=O)NC(=O)[C@@H](Cc1ccncc1)NC(=O)[C@H](N)Cc1ccc(O)cc1)C(=O)N[C@@H](Cc1ccccc1)C(N)=O [Compound No. 305, D-Tyr-D-Pya(4)-Asn-Ser-Phe-AzaGly-Leu-Arg(Me)-Phe-NH2] (H-[dY][d4Pal]NSF[azaGly]L[Arg(Me)]F-NH2) | 2.0 | 5 | – | lower than in the hCG administration | at least 2.0 mmol/animal | 29.4 oocytes | 32.6 oocytes | no difference was found among Groups A, B, C and D | less than a half of the level in Group A | no difference was found among Groups A, B, C and D | less than a half of the level in Group A
